Data on 9 molecules can be found in PubChem BioAssay (NCI).

Common to all, as to test: inhibition of tumour cell growth, NCI panel, 48 h
In assay [1] the test system is CAKI-1 renal.
The subject of assay [2] is EKVX NSCLC.
For assay [3], the system named is HT29 colon.
Assay [4] deals with KM12 colon.
Assay [5] relates to MOLT-4 leukemia.
The subject of assay [6] is OVCAR-3 ovarian.
Assay [7] has as its system RXF 393 renal.
The subject of assay [8] is SK-OV-3 ovarian.
In assay [9] the test system is SN12C renal.
Assay [10] has as its system UACC-62 melanoma.

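All cell lines were grown in 96-well plates and treated with compound for 48 hours. At the GI50, growth is halved. TGI is the concentration that stops growth completely.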 Bounds are passed on as bounds.

`COc1ccc2c(c1)CC[C@@H]1[C@@H]2CC[C@]2(C)c3c(cc(C(=O)O)c4sccc34)C[C@@H]12`: the GI50 in assay [1] is 33.8 µM; in [2], 16.2 µM; in assay [3], 13.8 µM; in [4] it was 10.6 µM; in assay [5] it was 10.1 µM; in assay [6], 24.7 µM. Besides, the GI50 was 16.5 µM in [7], 26 µM in assay [8], 17.8 µM in assay [9] and 17.1 µM in assay [10]. Besides, the TGI turned out to be 63.7 µM in [1]; 40.5 µM in assay [2]; 34 µM in [3]; 23.5 µM in assay [4]; 25.4 µM in assay [5]; 72.1 µM in assay [6]. Moreover, the TGI in assay [7] is 36 µM; in assay [8] it was 61.2 µM; in assay [9], 41.3 µM; in assay [10], 36.5 µM.

Take `COc1cc(-c2oc3c(OC)cc(OC)c(O)c3c(=O)c2OC)cc(OC)c1OC`: the TGI in assay [1], in [2], in [3], in assay [4], in [5] and in assay [6] was more than 100 µM throughout. In addition, the TGI in assay [7] was more than 100 µM; in [8], 22.9 µM; in assay [9] it was more than 100 µM; in [10], more than 100 µM.

For `COc1ccc2c(c1)oc(=O)c1cc(OC)ccc12`, the GI50 in assay [1] is more than 100 µM; in assay [2], 8.99 µM; in [3], more than 100 µM; in assay [4] it was more than 100 µM; in assay [5] it was more than 100 µM; in [6], more than 100 µM. For the same molecule, the GI50 was more than 100 µM in assay [7], more than 100 µM in assay [8], more than 100 µM in [9] and 63 µM in assay [10]. Further, the TGI in assay [1], in assay [2], in assay [3], in [4], in [5] and in assay [6] was more than 100 µM throughout. The TGI in assay [7], in assay [8], in assay [9] and in assay [10] was more than 100 µM throughout.

In the case of `CCN1C(=O)N(CC)C2C1NN=c1s/c(=C\c3ccco3)c(=O)n12` (centres undefined), the GI50 in [1] is 0.468 µM; in [2] it was 1.7 µM; in assay [3], 0.361 µM; in assay [4] it was 0.394 µM; in [5] it was 0.824 µM; in assay [6] it was 0.334 µM. The GI50 in [7] is 0.558 µM; in [8], 0.816 µM; in assay [9], 0.941 µM; in assay [10], 0.446 µM. Moreover, the TGI in assay [1] is more than 89.7 µM; in assay [2], more than 100 µM; in assay [3], more than 100 µM; in [4] it was more than 100 µM; in [5], more than 100 µM; in [7], more than 23.4 µM. Also, the TGI in assay [8], in assay [9] and in assay [10] was more than 100 µM in each case.

In the case of `N=N/C(=C\c1c(O)[nH]c2ccccc12)c1ccccc1`, the TGI in [1] is more than 100 µM; in [2], more than 92 µM; in [3], 44.9 µM; in [4], more than 89.2 µM; in [5], more than 100 µM; in [6], 44.2 µM. In addition, the TGI in assay [7] was 62.6 µM; in assay [8], more than 90.2 µM; in assay [9] it was more than 94.7 µM; in [10], more than 100 µM.

Take `CCNC(=O)Nc1ccc(Oc2ccnc3ccc4c(ccn4C)c23)cc1`: the GI50 is 0.236 µM in assay [1]; more than 100 µM in assay [2]; 44.6 µM in assay [3]; 37.7 µM in assay [4]; 58.2 µM in [5]; 19.7 µM in assay [6]. The GI50 was 17.9 µM in assay [7], 19.4 µM in assay [8], 20.9 µM in assay [9] and 19.5 µM in assay [10]. For the same molecule, the TGI was 0.961 µM in assay [1]; more than 100 µM in assay [2]; more than 100 µM in [3]; more than 100 µM in [4]; more than 100 µM in assay [5]; 42.2 µM in assay [6]. The TGI was more than 100 µM in assay [7], 56.5 µM in assay [8], 43.8 µM in [9] and 39.3 µM in assay [10].

On to `Cc1ccc(NC(=O)c2cc3ccccc3c(N=Nc3cc(S(=O)(=O)O)ccc3O)c2O)c(C)c1`, for which the TGI in assay [1] was more than 100 µM; in [2] it was more than 100 µM; in assay [3], 58.3 µM; in assay [4], 53.9 µM; in assay [5], more than 100 µM; in assay [6], more than 100 µM. Moreover, the TGI in assay [7] is 63.6 µM; in assay [8], more than 100 µM; in assay [9], more than 100 µM; in assay [10], 83.8 µM.

Regarding `COc1cc2ncnc(Nc3cccc(Cl)c3F)c2cc1OC(=O)N1CCN(C)C[C@H]1C`, the GI50 in [1] is 0.555 µM; in assay [2] it was 0.253 µM; in assay [3] it was more than 38.4 µM; in assay [4], more than 50.5 µM; in [5], more than 46.2 µM; in assay [6] it was more than 33.6 µM. Further, the GI50 was more than 34.4 µM in assay [7], 1.12 µM in assay [8], 40.5 µM in [9] and more than 40.7 µM in assay [10]. For the same molecule, the TGI was more than 54.1 µM in assay [1]; more than 61.2 µM in [2]; more than 64.9 µM in [3]; more than 88.5 µM in assay [4]; more than 81.3 µM in assay [5]; more than 61.8 µM in assay [6]. For the same molecule, the TGI in assay [7] was more than 50.8 µM; in assay [8], more than 32.1 µM; in assay [9] it was more than 100 µM; in [10] it was more than 65.5 µM.

For the molecule `Cn1nc(C(F)(F)F)cc1-c1c[nH]c(OCc2ccc(Cl)cc2)c(-c2ccc(Cl)c(C(F)(F)F)c2)c1=O`, the GI50 was 0.917 µM in assay [1]; 1.39 µM in [2]; 1.51 µM in [3]; 1.26 µM in assay [4]; 1.16 µM in assay [5]; 1.19 µM in [6]. For the same molecule, the GI50 in [7] was 1.13 µM; in assay [8] it was 1.36 µM; in [9] it was 0.755 µM; in assay [10], 0.516 µM. Also, the TGI in assay [1] was 2.91 µM; in [2] it was more than 50 µM; in assay [3] it was more than 47.5 µM; in assay [4] it was 4.86 µM; in [5] it was 3.03 µM; in assay [6], 19.5 µM. Also, the TGI came out at 3.4 µM in [7], 4.19 µM in assay [8], 6.95 µM in assay [9] and 2.29 µM in [10].
